Some test systems named below: IGROV1 ovarian; MALME-3M melanoma; HCT-15 colon; COLO 205 colon; SR leukemia; MOLT-4 leukemia; SF-295 CNS; LOX IMVI melanoma; ACHN renal; MDA-MB-435.
Common to all, as to experiment: inhibition of tumour cell growth, NCI panel, 48 h

SMILES strings stand for the structures.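 Interpolation was linear, between the two tested concentrations surrounding the appropriate level; five concentrations were tested over 48 hours in 96-well plates. At the GI50, growth is halved. TGI: total growth inhibition.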 Where only a bound is given, the exact number is not on record here.

For the compound `COc1ccc(/C=C/C(C(=O)O)C(=O)O)cc1`, the TGI was above 100 µM with IGROV1 ovarian; above 100 µM in the experiment on MALME-3M melanoma; above 100 µM in the experiment on HCT-15 colon; above 100 µM with COLO 205 colon; above 100 µM in the experiment with SR leukemia; 84.8 µM in the experiment with MOLT-4 leukemia. Moreover, the figures for the TGI with SF-295 CNS, in the experiment on LOX IMVI melanoma and in the experiment with ACHN renal were above 100 µM, 39.5 µM and above 100 µM, respectively.

Regarding `O=C(/C=C/c1ccc(Cl)cc1)c1ccncc1`, the TGI was above 100 µM in the experiment with IGROV1 ovarian; above 100 µM in the experiment on MALME-3M melanoma; above 100 µM with HCT-15 colon; above 100 µM in the experiment with COLO 205 colon; above 100 µM in the experiment on SR leukemia; 60.3 µM in the experiment with MOLT-4 leukemia. The TGI with SF-295 CNS is above 100 µM; with LOX IMVI melanoma it was 73.6 µM; with ACHN renal, above 100 µM.

With `CC1=C(c2cc(C(=O)Nc3cccc(C(F)(F)F)c3)nc(NC#N)n2)Sc2ccccc2N1`, the TGI in the experiment with IGROV1 ovarian, in the experiment on MALME-3M melanoma, in the experiment on HCT-15 colon, in the experiment on COLO 205 colon, with SR leukemia and with MOLT-4 leukemia was above 100 µM each time. Besides, the TGI with SF-295 CNS, in the experiment on LOX IMVI melanoma and in the experiment with ACHN renal was above 100 µM each time.

Consider `NC(=S)N/N=C(\C(=O)Nc1ccc(Cl)c(Cl)c1)C1=NN(c2ccccc2)C(c2cccc([N+](=O)[O-])c2)CC1=O` (stereo unspecified), for which the TGI with IGROV1 ovarian was 72.6 µM; in the experiment with MALME-3M melanoma, above 100 µM; in the experiment on HCT-15 colon, above 100 µM; with COLO 205 colon, 36.3 µM; in the experiment with SR leukemia it was above 100 µM; in the experiment with MOLT-4 leukemia, 70.9 µM. Also, the TGI in the experiment with SF-295 CNS is 57.2 µM; in the experiment with LOX IMVI melanoma, 30.8 µM; in the experiment with ACHN renal it was above 100 µM.

For `COc1cc2c3c(n(C)c(=O)c2cc1OC)-c1cc2c(cc1/C3=C\[C@@H](N)CCCCN)OCO2`, the GI50 in the experiment with MDA-MB-435 is 2.81 µM; with IGROV1 ovarian it was 2.24 µM; in the experiment with MALME-3M melanoma, 1.84 µM; with HCT-15 colon, 60.3 µM; with COLO 205 colon, 2.8 µM; in the experiment on MOLT-4 leukemia, 0.389 µM. Besides, the GI50 in the experiment on SF-295 CNS was 4.3 µM; in the experiment on LOX IMVI melanoma, 0.298 µM; with ACHN renal it was 2.46 µM. Moreover, the TGI in the experiment on MDA-MB-435 was above 100 µM; in the experiment with IGROV1 ovarian, above 100 µM; in the experiment on MALME-3M melanoma it was 13.3 µM; in the experiment on HCT-15 colon it was above 100 µM; in the experiment with COLO 205 colon it was above 86.3 µM; in the experiment with MOLT-4 leukemia, 3.45 µM. The TGI was above 100 µM in the experiment on SF-295 CNS, 3.9 µM in the experiment on LOX IMVI melanoma and above 41.4 µM in the experiment with ACHN renal.

Take `COC(=O)[C@H](Cc1ccccc1)NC(=O)[C@@H](OC)[C@@H]1Cc2cc3cc(OC4CC(OC5CC(O)C(O)C(C)O5)C(O)C(C)O4)c(C)c(O)c3c(O)c2C(=O)[C@H]1OC1CC(OC2CC(OC3CC(C)(O)C(O)C(C)O3)C(O)C(C)O2)C(O)C(C)O1` (stereo partly specified): the GI50 in the experiment on MDA-MB-435 is 0.0182 µM; in the experiment on IGROV1 ovarian, 0.00902 µM; in the experiment with MALME-3M melanoma, 0.00693 µM; in the experiment with HCT-15 colon it was 0.0725 µM; in the experiment on COLO 205 colon, 0.0182 µM; in the experiment on SR leukemia it was 0.00736 µM. In addition, the GI50 in the experiment with MOLT-4 leukemia is 0.017 µM; in the experiment with SF-295 CNS it was 0.025 µM. Further, the TGI with MDA-MB-435 was 0.0642 µM; with IGROV1 ovarian, above 14.3 µM; in the experiment with MALME-3M melanoma, 0.0287 µM; with HCT-15 colon, above 14.3 µM; with COLO 205 colon, 0.0682 µM; in the experiment with SR leukemia, 1.04 µM. Moreover, the TGI is 0.161 µM in the experiment with MOLT-4 leukemia and 1.7 µM with SF-295 CNS.

Turning to `C=C(C(=O)OC)[C@@H]1C[C@@H](O)[C@]2(C)CC/C=C(\C)CCC[C@H](C)[C@H](O)C1O2`, the GI50 in the experiment with MDA-MB-435 was 37.8 µM; in the experiment on IGROV1 ovarian, 22.7 µM; in the experiment with HCT-15 colon, 59 µM; in the experiment on COLO 205 colon, 36.1 µM; with MOLT-4 leukemia, 18.7 µM; in the experiment on SF-295 CNS, 83.8 µM. The GI50 in the experiment with LOX IMVI melanoma was 32.8 µM; in the experiment with ACHN renal, 57.5 µM. Also, the TGI in the experiment on MDA-MB-435 was above 100 µM; in the experiment on IGROV1 ovarian it was 73.5 µM; with HCT-15 colon it was above 100 µM; with COLO 205 colon it was above 100 µM; in the experiment with MOLT-4 leukemia, 46.5 µM; in the experiment with SF-295 CNS, above 100 µM. The TGI in the experiment with LOX IMVI melanoma and in the experiment with ACHN renal was above 100 µM each time.

Turning to `O=C(Nc1ccccc1F)c1ccc(NC2=C(Cl)C(=O)N(Cc3ccccc3)C2=O)cc1`, the GI50 in the experiment on MDA-MB-435 was 3.07 µM; in the experiment on IGROV1 ovarian, 1.16 µM; in the experiment on HCT-15 colon, 3.38 µM; in the experiment on COLO 205 colon, 9.03 µM; in the experiment on SR leukemia, 0.66 µM; with MOLT-4 leukemia, 2.45 µM. Moreover, the GI50 is 10.7 µM in the experiment on SF-295 CNS, 2.35 µM with LOX IMVI melanoma and 15.1 µM in the experiment on ACHN renal. The TGI in the experiment with MDA-MB-435 turned out to be 11.5 µM; in the experiment on IGROV1 ovarian, 2.94 µM; in the experiment on HCT-15 colon, 12.3 µM; in the experiment on COLO 205 colon it was 21 µM; in the experiment on SR leukemia it was 2.46 µM; in the experiment with MOLT-4 leukemia, 6.79 µM. Besides, the TGI turned out to be 22.6 µM in the experiment with SF-295 CNS, 5.9 µM in the experiment with LOX IMVI melanoma and 28.4 µM in the experiment with ACHN renal.

Take `Cc1cccc(N2C(=O)C(=O)C(c3nc4ccccc4s3)C(=O)C2=O)c1C`: the TGI with IGROV1 ovarian, in the experiment with MALME-3M melanoma, in the experiment with HCT-15 colon, in the experiment on COLO 205 colon, with SR leukemia and in the experiment on MOLT-4 leukemia was above 100 µM each time. The TGI with SF-295 CNS, with LOX IMVI melanoma and in the experiment on ACHN renal was above 100 µM in each case.

Turning to `N#Cc1nc(Nc2ccc([N+](=O)[O-])cc2)sc1N`, the TGI is above 100 µM with IGROV1 ovarian; above 91.4 µM in the experiment on MALME-3M melanoma; above 100 µM in the experiment with HCT-15 colon; above 100 µM in the experiment with COLO 205 colon; 6.85 µM with SR leukemia; above 82 µM with MOLT-4 leukemia. Moreover, the TGI in the experiment on SF-295 CNS was above 100 µM; in the experiment with LOX IMVI melanoma it was 28.6 µM; with ACHN renal it was 50.9 µM.

Take `CN1c2ccccc2C(C)(C)C12CC(c1ccc(Cl)c(S(=O)(=O)N3CCCC3)c1)=NO2` (stereo unspecified): the GI50 was above 100 µM with MDA-MB-435; above 100 µM with IGROV1 ovarian; above 100 µM with MALME-3M melanoma; 0.118 µM in the experiment on HCT-15 colon; above 100 µM in the experiment on COLO 205 colon; above 100 µM in the experiment with SF-295 CNS. Besides, in the experiment with ACHN renal, the GI50 is above 100 µM. In addition, the TGI in the experiment on MDA-MB-435, in the experiment on IGROV1 ovarian, in the experiment with MALME-3M melanoma, in the experiment with HCT-15 colon, in the experiment with COLO 205 colon and with SF-295 CNS was above 100 µM in each case. The TGI in the experiment with ACHN renal is above 100 µM.

The values above are taken from PubChem BioAssay (NCI).
